# Results: ChEMBL document CHEMBL1153697, “Bioactive constituents of the stem bark of Mitrephora glabra” (J Nat Prod, 2009)
# Calls of active or inactive are those of the source. No cut-off for these calls is given here.
# Assays:
# NCI-H460 = experiment: Cytotoxicity against human NCI-H460 cells after 3 days by sulforhodamine B assay; assay type: functional, cell-based; conditions: for IC50: NCI-H460, 72 h
# MCF7 = experiment: Cytotoxicity against human MCF7 cells after 3 days by sulforhodamine B assay; assay type: functional, cell-based; conditions: for IC50: MCF7, 72 h
# Micrococcus luteus = experiment: Antibacterial activity against Micrococcus luteus after 3 days by broth microdilution method; assay type: functional; conditions: 72 h
# Aspergillus niger = experiment: Antifungal activity against Aspergillus niger after 3 days by broth microdilution method; assay type: functional; conditions: 72 h
# KB = experiment: Cytotoxicity against human KB cells after 3 days by sulforhodamine B assay; assay type: functional, cell-based; conditions: for IC50: 72 h
# SF-268 = experiment: Cytotoxicity against human SF268 cells after 3 days by sulforhodamine B assay; assay type: functional, cell-based; conditions: for IC50: SF-268, 72 h
# Saccharomyces cerevisiae = experiment: Antifungal activity against Saccharomyces cerevisiae after 3 days by broth microdilution method; assay type: functional; conditions: 72 h
# [1] = test system: Mycolicibacterium smegmatis; experiment: Antibacterial activity against Mycobacterium smegmatis after 3 days by broth microdilution method; assay type: functional; conditions: 72 h
SMILES,IC50 (NCI-H460) [µM],IC50 (MCF7) [µM],MIC (Micrococcus luteus) [µg/mL],MIC (Aspergillus niger) [µg/mL],IC50 (KB) [µM],IC50 (SF-268) [µM],MIC (Saccharomyces cerevisiae) [µg/mL],MIC [1] [µg/mL],Activity (NCI-H460),Activity (MCF7),Activity (KB),Activity (SF-268)
C=C1C[C@]2(C(=O)O)C[C@H]1CC[C@H]2[C@]1(C)CCC[C@@](C)(C(=O)OC)[C@H]1C(=O)O,> 10,> 10,150,150,> 10,> 10,150,75,,,,
C=CCCC#CC#CC#CCCCCCCCC(=O)O [OROPHEIC ACID],10,10,94,188,10,10,47,94,,,,
CC1(C)S[C@@H]2[C@H](NC(=O)[C@H](N)c3ccccc3)C(=O)N2[C@H]1C(=O)O [AMPICILLIN],,,0.1,,,,,,,,,
C=C1C[C@@]23CC[C@H]4[C@@](C)(CCC[C@]4(C)C(=O)O)[C@@H]2CC[C@@H]1C3,> 10,> 10,50,100,> 10,> 10,50,50,,,,
C=CCCC#CC#CC#CCCCCCC[C@@H]1C[C@@H](CO)OC1=O [OROPHEOLIDE],10,10,125,250,10,10,63,31,,,,
C=CCCC#CC#CC#C/C=C/CCCC[C@@H]1C[C@@H](CO)OC1=O,10,10,50,12,10,10,12,12,,,,
C=C1C[C@]23C[C@H]1CC[C@H]2[C@]1(C)CCC[C@@]2(C)C(=O)O[C@@H](C3=O)[C@@H]12 [MITREKAURENONE],> 10,> 10,150,38,> 10,> 10,38,38,,,,
C=CCCC#CC#CC#CCCCCCCCC(=O)OC [METHYLOROPHEATE],,,50,25,,,25,12,inactive,inactive,inactive,inactive
NC[C@H]1O[C@H](O[C@H]2[C@H](O)[C@@H](O[C@H]3O[C@H](CO)[C@@H](O)[C@H](N)[C@H]3O)[C@H](N)C[C@@H]2N)[C@H](O)[C@@H](O)[C@@H]1O [KANAMYCIN],,,,,,,,0.2,,,,
O=C1c2ccccc2-c2c3c(cc4ccnc1c24)OCO3 [LIRIODENINE],5,5,6.3,25,5,5,12,12,,,,
C[C@@H]1[C@H](O)[C@@H](C)/C=C/C=C/C=C/C=C/C=C/C=C/C=C/[C@H](O[C@@H]2O[C@H](C)[C@@H](O)[C@H](N)[C@@H]2O)C[C@@H]2O[C@](O)(C[C@@H](O)C[C@@H](O)[C@H](O)CC[C@@H](O)C[C@@H](O)CC(=O)O[C@H]1C)C[C@H](O)[C@H]2C(=O)O [AMPHOTERICIN B],,,,25,,,25,,,,,
CCCCC#CC#CC#CCCCCCCCC(=O)O,10,10,25,50,10,10,25,25,,,,
